Like-named read-outs stand apart in the source and are kept apart here. Marks after values point to notes of the source that are not given here.
Assays:
HuH7 cell line = assay: In vitro cell proliferation assay (MTT), HuH7; type: cell-based; conditions: Homo sapiens, Huh-7, 72 h; read-out: EC50, anti-proliferative activity
Description: (§1) 2) In Vitro Cell Proliferation Assays (Table 22 to Table 35)
(§2) Cancer cell lines (5×10^3 cells per well) or HUVEC (1×10^4 cells per well) or HRMEC (1×10^4 cells per well) were distributed in 96-well plates and incubating in duplicate with escalating concentrations (10 nM to 3 μM) of compounds for 72 hr. Cell proliferation was measured using MTT (3[4,5-dimethylthiazol-2-yl]-2,5-diphenyltetrazolium bromide).

HepG2 cell line = assay: In vitro cell proliferation assay (MTT), HepG2; type: cell-based; conditions: Homo sapiens, read-out: EC50, anti-proliferative activity
Summary of the method: (§3)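 Cancer cell lines were seeded at 5×10^3 cells per well and HRMEC at 1×10^4 cells per well, then incubated in duplicate with escalating compound concentrations (10 nM to 3 μM) for 72 hr. Proliferation was read by MTT.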

EGFR (ErbB1) = biological target: T1, EGFR (ErbB1) (Homo sapiens, UniProt P00533); assay: In vitro kinase assay (Z'-LYTE), EGFR (ErbB1); type: biochemical; conditions: read-out: % of inhibition of the kinase compared to the control
T1 construct: purchased Invitrogen
Summary of the method: (§4)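 FRET-based Z'-LYTE coupled-enzyme assay: kinase phosphorylates a dual-fluorophore peptide, unphosphorylated peptide is protease-cleaved, and donor/acceptor emission ratio after 400 nm excitation quantifies progress. Buffer 50 mM HEPES pH 7.5, 10 mM MgCl2, 1 mM EGTA, 0.01% BRIJ-35; 1% DMSO final. Single compound concentration: 100 nM, or 10 μM for ABL and ABL T315I.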

HuCCT1 cell line = assay: In vitro cell proliferation assay (MTT), HuCCT1; type: cell-based; conditions: Homo sapiens, read-out: EC50, anti-proliferative activity
Description: as §1, §2

A549 cell line = assay: In vitro cell proliferation assay (MTT), A549; type: cell-based; conditions: Homo sapiens, read-out: EC50, anti-proliferative activity
Summary of the method: as §3

H1975 cell line = assay: In vitro cell proliferation assay (MTT), H1975; type: cell-based; conditions: Homo sapiens, read-out: EC50, anti-proliferative activity
Description: as §1, §2

HT29 cell line = assay: In vitro cell proliferation assay (MTT), HT29; type: cell-based; conditions: Homo sapiens, read-out: EC50, anti-proliferative activity
Description: as §1, §2

KDR (VEGFR2) = biological target: T2, KDR (VEGFR2) (Homo sapiens, UniProt P35968); assay: In vitro kinase assay (Z'-LYTE), KDR (VEGFR2); type: biochemical; conditions: read-out: % of inhibition of the kinase compared to the control
T2 construct: purchased Invitrogen
Summary of the method: as §4

MDA-MB-231 cell line = assay: In vitro cell proliferation assay (MTT), MDA-MB-231; type: cell-based; conditions: Homo sapiens, MDA-MB-231, 72 h; read-out: EC50, anti-proliferative activity
Summary of the method: as §3

HRMEC cells = assay: In vitro cell proliferation assay (MTT), HRMEC; type: cell-based; conditions: read-out: EC50, anti-proliferative activity
Description: as §1, §2

PDGFRA (PDGFR alpha) = biological target: T3, PDGFRA (PDGFR alpha) (Homo sapiens, UniProt P16234); assay: In vitro kinase assay (Z'-LYTE), PDGFRA; type: biochemical; conditions: read-out: % of inhibition of the kinase compared to the control
T3 construct: purchased Invitrogen
Summary of the method: as §4

HUVEC = assay: In vitro cell proliferation assay (MTT), HUVEC; type: cell-based; conditions: Homo sapiens, 72 h, read-out: EC50, anti-proliferative activity
Summary of the method: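 HUVEC cells were plated at 1×10^4 cells per well in 96-well plates and exposed in duplicate to increasing compound concentrations from 10 nM to 3 μM for 72 hr. Proliferation was then quantified with MTT (3[4,5-dimethylthiazol-2-yl]-2,5-diphenyltetrazolium bromide) to determine anti-proliferative activity.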

BxPC-3 cell line = assay: In vitro cell proliferation assay (MTT), BxPC-3; type: cell-based; conditions: Homo sapiens, read-out: EC50, anti-proliferative activity
Description: as §1, §2

HuH6 Clone 5 cell line = assay: In vitro cell proliferation assay (MTT), HuH6 Clone 5; type: cell-based; conditions: read-out: EC50, anti-proliferative activity
Description: as §1, §2

SRC = biological target: T4, SRC (Homo sapiens, UniProt P12931); assay: In vitro kinase assay (Z'-LYTE), SRC; type: biochemical; conditions: read-out: % of inhibition of the kinase compared to the control
T4 construct: purchased Invitrogen
Summary of the method: as §4

HeLa cell line = assay: In vitro cell proliferation assay (MTT), HeLa; type: cell-based; conditions: Homo sapiens, 72 h, read-out: EC50, anti-proliferative activity
Description: as §1, §2

EGFR (ErbB1) T790M L858R = biological target: T5, EGFR (ErbB1) T790M L858R (Homo sapiens, UniProt P00533, L858R/T790M); assay: In vitro kinase assay (Z'-LYTE), EGFR (ErbB1) T790M L858R; type: biochemical; conditions: read-out: % of inhibition of the kinase compared to the control
T5 construct: purchased Invitrogen
Description: (§5) 1) In Vitro Kinase Assays (Table 10 to Table 21)
(§6) The inhibitory activity of the compounds on several kinases including BRAF, EGFR (ErbB1), EGFR (ErbB1) T790M L858R, FGFR2, KDR (VEGFR2), PDGFRA (PDGFR alpha), SRC and other was evaluated by Invitrogen using the Z′-LYTE® technology. Briefly, the Z′-LYTE® biochemical assay employs a fluorescence-based, coupled-enzyme format and is based on the differential sensitivity of phosphorylated and non-phosphorylated peptides to proteolytic cleavage. The peptide substrate is labeled with two fluorophores—one at each end—that make up a FRET pair. A ratiometric method, which calculates the ratio (the Emission Ratio) of donor emission to acceptor emission after excitation of the donor fluorophore at 400 nm, is used to quantitate reaction progress.
(§7) The compounds are screened in 1% DMSO (final) in the well. For 10 point titrations, 3-fold serial dilutions are conducted from the starting concentration. All Peptide/Kinase Mixtures are diluted to a 2× working concentration in the appropriate Kinase Buffer. All ATP Solutions are diluted to a 4× working concentration in Kinase Buffer (50 mM HEPES pH 7.5, 0.01% BRIJ-35, 10 mM MgCl2, 1 mM EGTA). ATP Km apparent is previously determined using a Z′-LYTE® assay.
(§8) Each compound was incubated at a concentration of 100 nM (excepted to test the activity against ABL and ABL T315I for which the compounds were incubated at a concentration of 10 μM) and the tables 10 to 21 summarize the results obtained showing the inhibitory power of a compound.

BRAF = biological target: T6, BRAF (Homo sapiens, UniProt P15056); assay: In vitro kinase assay (Z'-LYTE), BRAF; type: biochemical; conditions: read-out: % of inhibition of the kinase compared to the control
T6 construct: purchased Invitrogen
Summary of the method: as §4

FGFR2 = biological target: T7, FGFR2 (Homo sapiens, UniProt P21802); assay: In vitro kinase assay (Z'-LYTE), FGFR2; type: biochemical; conditions: read-out: % of inhibition of the kinase compared to the control
T7 construct: purchased Invitrogen
Summary of the method: as §4

HepG2 cells = assay: Human hepatocellular carcinoma mouse model (HepG2 xenograft); type: in vivo, athymic nude male mice; conditions: 20 mg/kg q.d. per os for 15 consecutive days; for Anti-tumor activity (Tumor Growth Inhibition—TGI): mice, HepG2 xenograft, end of study vs vehicle
Description: 3) In Vivo Studies (Table 36)
Human hepatocellular carcinoma mouse model was prepared by subcutaneously implanting HepG2 cells (1×10^7 cell/mL in sterile PBS), into the right flank of athymic nude male mice (HSD, 6-7 weeks old). When the tumor volume reached approximately 200 mm^3, mice were assigned randomly to either vehicle alone or ORB compounds treatment groups (six mice per group). Mice were treated with either vehicle (PEG400) or OR0720, OR0721, OR0811 (20 mg/kg q.d.; per os for 15 consecutive days).
Tumor volumes in mm^3 were determined three times a week with a digital caliper and calculated using the following formula: Tumor Volume (mm)=length (mm)×width (mm)×width (mm)×½. Body weight was measured three times a week, and mice were observed daily for monitoring signs of stress to detect possible toxicities. One-way ANOVA was used for statistical comparisons. Data were analyzed with Prism 5.0 b (GraphPad Software) by one-way ANOVA with Bonferroni post hoc. Tumor Growth Inhibition (TGI) is calculated as the percent decrease of tumor growth at the end of the study in the ORB compounds treatment groups in comparison to the vehicle alone treatment group.

PC3 cell line = assay: In vitro cell proliferation assay (MTT), PC3; type: cell-based; conditions: Homo sapiens, PC-3, 72 h; read-out: EC50, anti-proliferative activity
Description: as §1, §2

Caki-2 = assay: In vitro cell proliferation assay (MTT), Caki-2; type: cell-based; conditions: Homo sapiens, read-out: EC50, anti-proliferative activity
Description: as §1, §2

ABL = biological target: T8, ABL (Homo sapiens, UniProt P00519); assay: In vitro kinase assay (Z'-LYTE), ABL; type: biochemical; conditions: read-out: % of inhibition of the kinase compared to the control
T8 construct: purchased Invitrogen
Description: as §5, §6, §7, §8

ABL T315I = biological target: T9, ABL T315I (Homo sapiens, UniProt P00519, T315I); assay: In vitro kinase assay (Z'-LYTE), ABL T315I; type: biochemical; conditions: read-out: % of inhibition of the kinase compared to the control
T9 construct: purchased Invitrogen
Description: as §5, §6, §7, §8

T7 sequence (P21802 22-821): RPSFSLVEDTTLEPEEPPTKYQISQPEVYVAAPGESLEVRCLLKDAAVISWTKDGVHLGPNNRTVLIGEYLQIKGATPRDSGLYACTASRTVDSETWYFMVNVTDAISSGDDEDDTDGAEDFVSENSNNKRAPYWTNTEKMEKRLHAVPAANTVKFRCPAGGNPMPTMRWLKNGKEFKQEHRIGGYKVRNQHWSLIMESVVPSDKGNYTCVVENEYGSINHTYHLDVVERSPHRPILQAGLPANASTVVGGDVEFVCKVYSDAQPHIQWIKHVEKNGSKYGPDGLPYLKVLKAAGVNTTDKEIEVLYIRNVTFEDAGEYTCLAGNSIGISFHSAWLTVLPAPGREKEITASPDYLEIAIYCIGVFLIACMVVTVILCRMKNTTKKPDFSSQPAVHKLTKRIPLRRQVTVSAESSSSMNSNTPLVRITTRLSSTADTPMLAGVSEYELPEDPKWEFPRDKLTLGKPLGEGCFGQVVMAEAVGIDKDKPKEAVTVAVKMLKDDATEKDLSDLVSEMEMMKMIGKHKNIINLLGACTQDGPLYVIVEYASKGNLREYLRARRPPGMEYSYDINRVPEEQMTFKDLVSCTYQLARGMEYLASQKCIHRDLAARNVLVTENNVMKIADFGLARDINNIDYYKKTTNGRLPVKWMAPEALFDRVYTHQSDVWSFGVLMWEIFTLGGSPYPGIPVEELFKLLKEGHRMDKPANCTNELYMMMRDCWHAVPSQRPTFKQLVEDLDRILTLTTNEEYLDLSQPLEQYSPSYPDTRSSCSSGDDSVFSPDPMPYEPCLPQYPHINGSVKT
T4 sequence (P12931 whole entry): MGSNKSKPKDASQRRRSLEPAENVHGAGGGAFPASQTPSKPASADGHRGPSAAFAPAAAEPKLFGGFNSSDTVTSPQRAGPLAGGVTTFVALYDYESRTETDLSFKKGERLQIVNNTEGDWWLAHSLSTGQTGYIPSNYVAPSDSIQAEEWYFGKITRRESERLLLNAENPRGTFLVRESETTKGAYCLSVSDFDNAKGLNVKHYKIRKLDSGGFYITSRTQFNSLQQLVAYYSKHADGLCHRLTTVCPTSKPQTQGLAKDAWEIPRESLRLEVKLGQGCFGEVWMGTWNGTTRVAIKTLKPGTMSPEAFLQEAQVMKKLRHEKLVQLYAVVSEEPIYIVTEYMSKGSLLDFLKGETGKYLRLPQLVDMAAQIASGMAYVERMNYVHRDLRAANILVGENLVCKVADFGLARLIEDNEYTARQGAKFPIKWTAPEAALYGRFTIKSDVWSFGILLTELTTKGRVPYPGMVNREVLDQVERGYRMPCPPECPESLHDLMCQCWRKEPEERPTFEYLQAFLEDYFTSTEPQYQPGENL
T2 sequence (P35968 20-1356): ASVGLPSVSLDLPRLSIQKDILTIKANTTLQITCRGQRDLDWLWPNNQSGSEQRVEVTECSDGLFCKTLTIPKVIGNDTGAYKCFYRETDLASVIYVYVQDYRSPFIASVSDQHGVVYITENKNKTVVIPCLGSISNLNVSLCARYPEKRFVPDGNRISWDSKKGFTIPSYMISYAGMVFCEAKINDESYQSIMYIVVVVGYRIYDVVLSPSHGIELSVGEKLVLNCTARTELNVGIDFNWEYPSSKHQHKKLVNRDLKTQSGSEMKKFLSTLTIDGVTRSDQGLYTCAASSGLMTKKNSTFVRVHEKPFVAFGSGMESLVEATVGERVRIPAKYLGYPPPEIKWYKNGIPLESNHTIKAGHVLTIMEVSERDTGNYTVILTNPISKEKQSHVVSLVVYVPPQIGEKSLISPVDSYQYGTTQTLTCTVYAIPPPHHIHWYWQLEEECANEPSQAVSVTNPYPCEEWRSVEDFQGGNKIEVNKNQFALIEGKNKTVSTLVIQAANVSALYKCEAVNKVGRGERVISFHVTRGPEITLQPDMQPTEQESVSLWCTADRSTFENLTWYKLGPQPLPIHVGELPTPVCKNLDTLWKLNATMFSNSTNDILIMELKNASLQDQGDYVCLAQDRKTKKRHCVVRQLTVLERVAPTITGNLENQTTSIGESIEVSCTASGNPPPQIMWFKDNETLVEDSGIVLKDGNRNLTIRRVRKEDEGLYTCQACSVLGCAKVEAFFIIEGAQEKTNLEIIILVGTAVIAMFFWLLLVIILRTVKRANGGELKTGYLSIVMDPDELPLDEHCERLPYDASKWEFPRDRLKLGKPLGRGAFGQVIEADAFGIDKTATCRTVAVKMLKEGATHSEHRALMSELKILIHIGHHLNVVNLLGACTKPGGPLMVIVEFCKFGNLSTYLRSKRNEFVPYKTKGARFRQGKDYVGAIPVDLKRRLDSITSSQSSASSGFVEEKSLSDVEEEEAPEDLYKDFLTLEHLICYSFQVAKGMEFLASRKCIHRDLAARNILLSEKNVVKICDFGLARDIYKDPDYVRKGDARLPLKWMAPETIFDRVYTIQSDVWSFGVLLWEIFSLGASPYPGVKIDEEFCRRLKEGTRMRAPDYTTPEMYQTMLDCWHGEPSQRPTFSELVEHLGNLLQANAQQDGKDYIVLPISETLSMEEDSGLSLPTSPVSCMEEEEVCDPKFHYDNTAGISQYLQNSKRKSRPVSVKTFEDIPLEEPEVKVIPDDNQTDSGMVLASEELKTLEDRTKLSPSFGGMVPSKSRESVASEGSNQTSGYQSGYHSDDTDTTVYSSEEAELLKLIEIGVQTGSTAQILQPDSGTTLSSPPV
T3 sequence (P16234 24-1089): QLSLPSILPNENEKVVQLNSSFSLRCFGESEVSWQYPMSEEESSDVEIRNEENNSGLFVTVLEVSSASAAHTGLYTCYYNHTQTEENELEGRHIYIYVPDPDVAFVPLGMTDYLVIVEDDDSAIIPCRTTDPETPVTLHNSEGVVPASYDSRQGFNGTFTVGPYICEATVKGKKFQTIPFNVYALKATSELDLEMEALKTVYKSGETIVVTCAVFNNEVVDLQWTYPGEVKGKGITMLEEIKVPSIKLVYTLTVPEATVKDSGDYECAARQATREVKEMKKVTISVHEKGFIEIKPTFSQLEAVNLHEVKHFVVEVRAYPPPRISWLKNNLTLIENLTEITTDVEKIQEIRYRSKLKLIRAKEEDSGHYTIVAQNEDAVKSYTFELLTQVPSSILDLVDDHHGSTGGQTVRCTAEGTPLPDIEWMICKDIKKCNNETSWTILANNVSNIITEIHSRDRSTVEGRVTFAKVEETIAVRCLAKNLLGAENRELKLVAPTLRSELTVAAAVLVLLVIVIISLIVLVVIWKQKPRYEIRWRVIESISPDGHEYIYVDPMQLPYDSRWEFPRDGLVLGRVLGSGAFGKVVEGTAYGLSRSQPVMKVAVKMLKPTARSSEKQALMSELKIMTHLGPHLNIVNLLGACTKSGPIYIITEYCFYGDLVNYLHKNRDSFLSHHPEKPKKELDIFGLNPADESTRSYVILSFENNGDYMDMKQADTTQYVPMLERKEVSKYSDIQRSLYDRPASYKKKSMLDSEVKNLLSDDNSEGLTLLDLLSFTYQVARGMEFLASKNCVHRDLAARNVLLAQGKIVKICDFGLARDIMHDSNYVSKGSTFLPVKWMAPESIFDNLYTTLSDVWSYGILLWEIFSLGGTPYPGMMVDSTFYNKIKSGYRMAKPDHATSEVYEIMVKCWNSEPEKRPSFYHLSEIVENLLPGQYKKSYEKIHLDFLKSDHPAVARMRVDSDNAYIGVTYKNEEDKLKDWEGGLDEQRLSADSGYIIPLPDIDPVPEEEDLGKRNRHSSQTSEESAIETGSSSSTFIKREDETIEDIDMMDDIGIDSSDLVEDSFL
T5 sequence (P00533 25-1210 T790M/L858R): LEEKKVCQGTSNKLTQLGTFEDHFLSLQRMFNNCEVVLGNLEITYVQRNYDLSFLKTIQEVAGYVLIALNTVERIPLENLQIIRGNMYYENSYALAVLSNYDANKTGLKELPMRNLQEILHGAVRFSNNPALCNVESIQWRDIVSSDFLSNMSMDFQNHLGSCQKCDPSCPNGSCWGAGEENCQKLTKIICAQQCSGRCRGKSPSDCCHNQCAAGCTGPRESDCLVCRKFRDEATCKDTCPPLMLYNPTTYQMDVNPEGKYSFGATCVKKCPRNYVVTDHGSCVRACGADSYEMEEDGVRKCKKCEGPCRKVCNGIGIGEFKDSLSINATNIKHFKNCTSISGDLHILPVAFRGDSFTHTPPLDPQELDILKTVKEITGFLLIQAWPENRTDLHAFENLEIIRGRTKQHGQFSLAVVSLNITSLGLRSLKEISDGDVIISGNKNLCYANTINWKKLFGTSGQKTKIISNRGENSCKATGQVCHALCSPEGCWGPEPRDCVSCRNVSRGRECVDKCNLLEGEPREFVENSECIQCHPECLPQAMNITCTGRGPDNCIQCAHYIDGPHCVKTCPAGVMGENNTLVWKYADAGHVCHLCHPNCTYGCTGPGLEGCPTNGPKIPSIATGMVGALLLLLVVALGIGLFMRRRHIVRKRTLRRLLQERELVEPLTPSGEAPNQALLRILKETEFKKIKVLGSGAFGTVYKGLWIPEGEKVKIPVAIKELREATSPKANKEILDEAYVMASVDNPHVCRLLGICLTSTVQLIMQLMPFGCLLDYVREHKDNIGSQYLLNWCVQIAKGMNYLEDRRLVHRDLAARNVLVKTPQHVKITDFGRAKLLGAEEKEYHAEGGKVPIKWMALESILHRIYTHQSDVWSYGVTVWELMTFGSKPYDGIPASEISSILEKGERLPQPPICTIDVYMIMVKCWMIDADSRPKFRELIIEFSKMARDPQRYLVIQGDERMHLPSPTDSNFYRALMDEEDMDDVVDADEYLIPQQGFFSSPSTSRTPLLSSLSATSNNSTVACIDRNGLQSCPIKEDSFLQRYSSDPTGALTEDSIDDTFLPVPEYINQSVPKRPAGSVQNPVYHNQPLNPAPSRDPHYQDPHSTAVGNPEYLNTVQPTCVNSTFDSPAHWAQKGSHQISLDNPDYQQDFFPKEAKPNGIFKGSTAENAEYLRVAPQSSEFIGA

Structure (SMILES)	EC50 (HuH7 cell line) [µM]	EC50 (HepG2 cell line; HepG2, 72 h) [µM]	inhibition at 0.1 µM (EGFR (ErbB1)) [%]	EC50 (A549 cell line; A549, 72 h) [µM]	EC50 (HT29 cell line; HT-29, 72 h) [µM]	inhibition at 0.1 µM (KDR (VEGFR2)) [%]	EC50 (MDA-MB-231 cell line) [µM]	EC50 (HRMEC cells; 72 h) [µM]	inhibition at 0.1 µM (PDGFRA (PDGFR alpha)) [%]	EC50 (HUVEC) [µM]	EC50 (BxPC-3 cell line; BXPC-3, 72 h) [µM]	inhibition at 0.1 µM (SRC) [%]	inhibition at 0.1 µM (EGFR (ErbB1) T790M L858R) [%]	inhibition at 0.1 µM (BRAF) [%]	inhibition at 0.1 µM (FGFR2) [%]	tumor growth in xenografted mice bearing human hepatocellular carcinoma tumors (HepG2 cells)	Anti-tumor activity (Tumor Growth Inhibition—TGI) (HepG2 cells) [%*]	EC50 (H1975 cell line; NCI-H1975, H1975, 72 hr, MTT) [µM]	EC50 (PC3 cell line) [µM]	EC50 (A549 cell line; A549, 72 hr, MTT) [µM]	also measured
CC(=O)c1cc2cc(NCc3cc(NC(=O)c4ccc(CN5CCC(N(C)C)C5)c(C(F)(F)F)c4)ccc3C)cnc2[nH]1 (stereo not drawn) [OR0718, N-{3-[(2-Acetyl-1H-pyrrolo[2,3-b]pyridin-5-ylamino)-methyl]-4-methyl-phenyl}-4-(3-dimethylamino-pyrrolidin-1-ylmethyl)-3-trifluoromethyl-benzamide]	0.1 to 1	0.1 to 1	≥ 50	0.1 to 1	0.1 to 1	≥ 50	≤ 0.1	0.1 to 1	≥ 50	≤ 0.1	≤ 0.1	≥ 50	≥ 50	≥ 50	≥ 50	–	–	–	–	–	EC50 (HuCCT1 cell line; HuCCT-1, 72 h): 0.1 to 1 µM; EC50 (H1975 cell line; NCI-H1975, 72 h): 0.1 to 1 µM; EC50 (HuH6 Clone 5 cell line; HUH-6-clone5, 72 h): 0.1 to 1 µM; EC50 (HeLa cell line): 0.1 to 1 µM
CC(=O)c1cc2cc(NCc3cc(NC(=O)c4ccc(CN5CC[C@H](N(C)C)C5)c(C(F)(F)F)c4)ccc3C)cnc2[nH]1 [OR0811, N-{3-[(2-Acetyl-1H-pyrrolo[2,3-b]pyridin-5-ylamino)-methyl]-4-methyl-phenyl}-4-((S)-3-dimethylamino-pyrrolidin-1-ylmethyl)-3-trifluoromethyl-benzamide]	0.1 to 1	≤ 0.1	≥ 50	0.1 to 1	0.1 to 1	≥ 50	0.1 to 1	0.1 to 1	–	0.1 to 1	0.1 to 1	–	–	≥ 50	≥ 50	significantly induced a decrease of tumor growth	75	≥ 1	0.1 to 1	–	EC50 (Caki-2; CAKI-2, 72 h): 0.1 to 1 µM
Cc1ccc(NC(=O)c2ccc(CN3CCC(N(C)C)C3)c(C(F)(F)F)c2)cc1CNc1cnc2[nH]c(C(=O)O)cc2c1 (stereo not drawn) [OR0528, 5-{5-[4-(3-Dimethylamino-pyrrolidin-1-ylmethyl)-3-trifluoromethyl-benzoylamino]-2-methyl-benzylamino}-1H-pyrrolo[2,3-b]pyridine-2-carboxylic acid]	–	–	≥ 50	–	–	≥ 50	–	–	≥ 50	–	–	≥ 50	≥ 50	< 50	≥ 50	–	–	≥ 1	–	≥ 1	EC50 (HepG2 cell line; HepG2, 72 hr, MTT): ≥ 1 µM; EC50 (HT29 cell line; HT-29, HT29, 72 hr, MTT): ≥ 1 µM; inhibition at 10 µM (ABL): ≥ 50%; EC50 (BxPC-3 cell line; BxPC-3, 72 hr, MTT): ≥ 1 µM; inhibition at 10 µM (ABL T315I): ≥ 50%
CC(=O)c1cc2cc(NCc3cc(NC(=O)c4cncc(C(F)(F)F)c4)ccc3C)cnc2[nH]1 [OR0721, N-{3-[(2-Acetyl-1H-pyrrolo[2,3-b]pyridin-5-ylamino)-methyl]-4-methyl-phenyl}-5-trifluoromethyl-nicotinamide]	0.1 to 1	≤ 0.1	< 50	–	–	≥ 50	0.1 to 1	–	≥ 50	0.1 to 1	0.1 to 1	≥ 50	< 50	≥ 50	< 50	significantly induced a decrease of tumor growth	54	≥ 1	0.1 to 1	≥ 1	EC50 (HuCCT1 cell line; HuCCT-1, HuCCT1, 72 hr, MTT): ≥ 1 µM; EC50 (HT29 cell line; HT-29, HT29, 72 hr, MTT): ≥ 1 µM; EC50 (HRMEC cells; 72 hr, MTT): ≥ 1 µM; EC50 (HuH6 Clone 5 cell line; HUH-6-clone5, HuH6 Clone 5, 72 hr, MTT): ≥ 1 µM; EC50 (Caki-2; Caki-2, 72 hr, MTT): ≥ 1 µM

— US9403823B2, “Protein kinase inhibitors” (ORIBASE PHARMA, priority 2012, dated 2016)
